Laboratory results as given in patent EP4232018B1 (priority 2020, dated 2022).
Entries after “also recorded” stand apart in the source; their conditions may differ.

How the values were obtained:
[1] = tested on: African swine fever virus; assay type: cell-based
SARS-CoV-2 = assay type: cell-based

## Cc1ccc(C(C)C)c(OC(=O)C[N+](C)(C)CCCCCCCCCC[N+](C)(C)CC(=O)Oc2cc(C)ccc2C(C)C)c1.[Cl-].[Cl-] [Compound V, N1,N10-bis(2-(2-isopropyl-5-methylphenoxy)-2-oxoethyl)-N1,N1,N10,N10-tetramethyldecane-1,10-diaminium dichloride]
[1]
  inhibiting African swine fever virus: effective at inhibiting African swine fever virus
  viral multiplication (rosetta): Cells grew well and were protected from African swine fever virus infection. No rosetta were observed; also recorded: Cells grew well, but protection against ASFV infection decreased and some rosetta became visible

## Cc1ccc(C(C)C)cc1OC(=O)C[N+](C)(C)CCCCCCCCCC[N+](C)(C)CC(=O)Oc1cc(C(C)C)ccc1C.[Cl-].[Cl-] [Compound IV, N1,N10-bis(2-(5-isopropyl-2-methylphenoxy)-2-oxoethyl)-N1,N1,N10,N10-tetramethyldecane-1,10-diaminium dichloride]
A549 NSCLC cells
  effect on cell viability: does not affect cell viability
[1]
  inhibiting African swine fever virus: effective at inhibiting African swine fever virus
  viral multiplication (rosetta): Cells grew well and were protected from African swine fever virus infection. No rosetta were observed; also recorded: Cells grew well, but protection against ASFV infection decreased and some rosetta became visible
SARS-CoV-2
  inhibition of the SARS-CoV-2 reporter gene: inhibits the SARS-CoV-2 reporter gene in a dose dependent manner
